Tests used:
Assay type in all cases: cell-based, rat
[1] = test system: L6 myotubes; assay: Enzymatic 2DG glucose uptake assay in L6 myotubes; details: 4 h; for glucose uptake, shape of concentration dependence: 0.01–10^4 nM
Procedure: (§1) In vitro cultured cell experiments were conducted according to a previously described protocol[6],[14]. Briefly, L6 myoblasts derived from rat skeletal muscle and of less than 40 passages were maintained in MEM supplemented with 10% foetal bovine serum (FBS) and antibiotics (100 U/ml penicillin and 100 μg/ml streptomycin) at 37 °C under a humidified atmosphere condition of 5% CO2 and 95% air. In each experiment, cells (2.2 × 10^4 cells/ml) were seeded into 96-well plates or 60-mm dishes for induction of differentiation into mature myotubes. After reaching confluence, cells were supplemented with differentiation medium containing 2% FBS and the same antibiotics for 7 days. Cells were used for each experiment after morphological analysis of differentiation status using phase-contrast microscopy. To explore the contribution of CaMKKβ or intracellular-free calcium ions in quercetin- and isorhamnetin-stimulated GLUT4 translocation, L6 cells were incubated in the presence or absence of 10 μM STO-609 and 25 μM […], respectively, for 30 min prior to treatment with either quercetin or isorhamnetin.
After serum starvation by incubating L6 myotubes in MEM with 0.2% BSA for 18 h, cells were treated with quercetin and isorhamnetin at the specified concentration (0.01 nM–10 μM) for 4 h in 0.2% BSA-containing medium. DMSO and insulin (100 nM) were used as a vehicle control and positive control, respectively. Glucose uptake was measured by an enzymatic 2DG uptake assay using myotubes on a 96-well plate as previously described.

[2] = test system: PI3K; assay: Phosphorylation of PI3K in L6 myotubes (western blot); details: 15 min
Procedure: (§2) For in vitro cell culture experiments, after serum starvation for 18 h, myotubes were treated with various concentrations of quercetin or isorhamnetin (0.1–10 nM) for 15 min; DMSO (final 0.1%) was used as a vehicle control. As positive controls, 100 nM insulin, 1 mM AICAR, 10 nM leptin, or 100 ng/mL IL-15 were used for insulin, AMPK, JAK2/STAT, or JAK3/STAT signalling pathways, respectively. Cells were treated with insulin or AICAR for 15 min, leptin for 60 min, or IL-15 for 24 h. Whole protein and plasma membrane fractions were prepared from myotubes, as previously described. For in vivo experiment, plasma membrane fraction and tissue lysate of soleus muscle were prepared.
(§3) Translocation of GLUT4 to the plasma membrane, as well as expression and phosphorylation levels of GLUT4-related regulators were estimated by western blot analysis. Briefly, equal amounts of proteins were separated by sodium dodecyl sulfate-polyacrylamide gel electrophoresis (SDS-PAGE). […] Specific immune complexes were developed using ImmunoStar® LD and detected with an ATTO Light-Capture II Western Blotting Detection System. Individual band density was calculated by ImageJ and normalized to the control.

[3] = test system: Akt; assay: Phosphorylation of Akt in L6 myotubes (western blot); details: 15 min; for Akt phosphorylation at Ser473: higher concentrations (1 μM and 10 μM)
Procedure: as §2
(§4) Translocation of GLUT4 to the plasma membrane, as well as expression and phosphorylation levels of GLUT4-related regulators were estimated by western blot analysis. Briefly, equal amounts of proteins were separated by sodium dodecyl sulfate-polyacrylamide gel electrophoresis (SDS-PAGE). Separated proteins were transferred onto a polyvinylidene fluoride membrane and nonspecific binding sites were blocked using either Blocking One (to detect unphosphorylated proteins) or Blocking One-P (to detect phosphoproteins). The membrane was incubated overnight with an appropriate primary antibody for GLUT4 (1:5000), IR (1:10000), p-IRS1 (1:5000), IRS1 (1:5000), p-PI3K (1:5000), PI3K (1:10000), p-Akt (1:5000), Akt (1:10000), p-AMPKα (1:5000), AMPKα (1:10000), p-ACC (1:5000), ACC (1:10000), p-LKB1 (1:5000), LKB1 (1:10000), p-JAK2 (1:5000), JAK2 (1:5000), p-JAK3 (1:5000), JAK3 (1:10000), p-STAT1 (1:5000), STAT1 (1:10000), p-STAT3 (1:5000), STAT3 (1:10000), p-STAT5 (1:5000), STAT5 (1:10000), or β-actin (1:20000), and subsequently treated with the corresponding horseradish peroxidase-conjugated secondary antibody (1:50000) for 1 h. Specific immune complexes were developed using ImmunoStar® LD and detected with an ATTO Light-Capture II Western Blotting Detection System. Individual band density was calculated by ImageJ and normalized to the control.
(§5) 42 after morphological analysis of differentiation status using phase-contrast microscopy.
(§6) 43 Preparation of whole protein and plasma membrane fractions After serum starvation
(§7) 44 for 18 h, myotubes were treated with various concentrations of quercetin or isorhamnetin (1–
45 10 μM) for 15 min; DMSO (final 0.1%) was used as a vehicle control. As positive controls,
46 100 nM insulin, 1 mM AICAR, or 10 nM leptin were used for insulin, AMPK or JAK2/STAT
47 signalling pathways, respectively. Cells were treated with insulin or AICAR for 15 min, or
48 leptin for 60 min. […]
59 complexes were developed using ImmunoStar® LD and detected with an ATTO Light-Capture
60 Ⅱ Western Blotting Detection System. Individual band density was calculated by ImageJ and […]

[4] = test system: AMPK; assay: Phosphorylation of AMPK in L6 myotubes (western blot); details: 15 min
Procedure: as §1, §2, §4, §5, §6, §7
45 10 μM) for 15 min; DMSO (final 0.1%) was used as a vehicle control. As positive controls, […]

[5] = test system: LKB1; assay: Phosphorylation of LKB1 in L6 myotubes (western blot); details: 0.1–10 nM, 15 min
Procedure: as §2, §3

[6] = test system: JAK3; assay: Phosphorylation of JAK3 in L6 myotubes (western blot); details: physiological concentration range (0.1–10 nM), 15 min
Procedure: as §2, §3

[7] = test system: STAT1; assay: Phosphorylation of STAT1 in L6 myotubes (western blot); details: 0.1–10 nM, 15 min
Procedure: as §2, §3

[8] = test system: STAT3; assay: Phosphorylation of STAT3 in L6 myotubes (western blot); details: 10 nM, 15 min
Procedure: as §2, §3

[9] = test system: STAT5; assay: Phosphorylation of STAT5 in L6 myotubes (western blot); details: 1 nM, 15 min
Procedure: as §2, §3

[10] = test system: IRS1; assay: Phosphorylation of IRS1 in L6 myotubes (western blot); details: 0.1–10 nM, 15 min
Procedure: as §2, §3

[11] = test system: ACC; assay: Phosphorylation of ACC in L6 myotubes (western blot); details: 0.1 nM or 1 nM, 15 min
Procedure: as §2, §3

[12] = 0.01 nM to 1 nM, compared with vehicle (DMSO)
[13] = higher concentrations (1 μM and 10 μM)

SMILES	glucose uptake [1, 12]	glucose uptake ([1]; 1 nM)	glucose uptake ([1]; 10 nM)	glucose uptake ([1]; 100 nM)	glucose uptake ([1]; 1 μM)	glucose uptake ([1]; 10 μM)	glucose uptake, shape of concentration dependence [1]	Akt phosphorylation at Ser473 [3]	AMPK phosphorylation [4, 13]	LKB1 phosphorylation [5]	other results
COc1cc(-c2oc3cc(O)cc(O)c3c(=O)c2O)ccc1O [isorhamnetin, 3′-O-methyl quercetin]	increased glucose uptake in a dose-dependent manner	significant increase	decreased glucose uptake	decreased glucose uptake	significant increase	significant increase	biphasic increase in glucose uptake	significantly increased Akt phosphorylation	induced phosphorylation of AMPK	neither quercetin nor isorhamnetin increased LKB1 phosphorylation	phosphorylation of PI3K ([2]; 0.1 nM): increased PI3K phosphorylation; Akt phosphorylation ([3]; 0.1–10 nM): did not affect Akt phosphorylation; JAK3 phosphorylation [6]: effectively promoted; phosphorylation of STAT1 [7]: but not STAT1; phosphorylation of STAT3 [8]: increased; phosphorylation of STAT5 [9]: increased
O=c1c(O)c(-c2ccc(O)c(O)c2)oc2cc(O)cc(O)c12 [quercetin, 3,3′,4′,5,7-pentahydroxy flavone]	increased glucose uptake in a dose-dependent manner	significant increase	decreased glucose uptake	decreased glucose uptake	significant increase	significant increase	biphasic increase in glucose uptake	significantly increased Akt phosphorylation	induced phosphorylation of AMPK	neither quercetin nor isorhamnetin increased LKB1 phosphorylation	glucose uptake ([1]; 0.1 nM): significant increase; phosphorylation of IRS1 [10]: dose-dependently promoted; phosphorylation of PI3K ([2]; 0.1–10 nM): significantly increased phosphorylation of PI3K; Akt phosphorylation at Thr308 and Ser473 ([3]; 10 nM): increased Akt phosphorylation; AMPK phosphorylation ([4]; 0.1 nM and 1 nM): promoted AMPK phosphorylation; phosphorylation of ACC [11]: phosphorylation was increased

Reference: publication PMC6389993, “Quercetin and its metabolite isorhamnetin promote glucose uptake through different signalling pathways in myotubes” (Scientific Reports, 2019)
